Source: patent publication US20170080087A1, “Combination Therapies for Treating Her2-Positive Cancers that are Resistant to Her2-Targeted Therapies” (MERRIMACK PHARMACEUTICALS, INC., priority 2014, published 2017)

Assays:
human cardiomyocytes = test: Binding and uptake into human cardiomyocytes; type: cell-based; conditions: compared with MM-302 and untargeted pegylated liposomal doxorubicin
From the text: Additionally, the number of HER2 receptors needed per cell to optimize the binding of MM-302 is approximately 200,000 HER2 receptors per cell. […] The primary mechanism of action of MM-302 is the use of the HER2 protein to selectively deliver doxorubicin into tumor cells that express greater than approximately 200,000 HER2 receptors per cell.

[1] = test system: BT-474-M3 breast cancer cells; test: BT-474-M3 breast cancer xenograft after failure to respond to T-DM1; type: in vivo, mice
Experimental: The response to the MM-302 and trastuzumab combination after failure to respond to T-DM1 was evaluated in the BT-474-M3 breast cancer xenograft model.
To obtain the BT-474-M3 HER2-overexpressing human breast cancer cell line, BT-474 cells (ATCC® HTB-20™) were passaged twice through mice with the fastest growing two tumors out of ten selected for ex-vivo propagation during each round of selection. Tumors were excised and cultured ex-vivo to obtain the M3 sub-line that was verified by SNP analysis. (see Noble, Cancer Chemother. Pharmacol. 2009 64:741-51).
Mice were inoculated with BT-474-M3 breast cancer cells (15×10^6; into the mammary fat pad). When tumor volumes reached about 360 mm^3, mice were treated with T-DM1 at either 1, 2, or 4 mg/kg (q1w) (white circles). […] At day 55, the mice were switched from T-DM1 treatment to the combination of MM-302 (3 mg/kg, q1w for a total of 3 doses; day 55, 62 and 69) and trastuzumab (at a loading dose of 8 mg/kg followed by 6 mg/kg q1w) (black squares). Changes in tumor volume as well as in mouse weight were monitored twice a week.

COc1cccc2c1C(=O)c1c(O)c3c(c(O)c1C2=O)C[C@@](O)(C(=O)CO)C[C@@H]3O[C@H]1C[C@H](N)[C@H](O)[C@H](C)O1 [free doxorubicin, (8S,10S)-10-(4-amino-5 hydroxy-6-methyl-tetrahydro-2H-pyran-2-yloxy)-6,8,11-trihydroxy-8-(2-hydroxyacetyl)-1-methoxy-7,8,9,10-tetrahydrotetracene-5,12-dione]
level of uptake into human cardiomyocytes (human cardiomyocytes): relatively much higher

T-DM1
tumor response to single agent ([1]; T-DM1 1, 2 or 4 mg/kg q1w): failed to respond
slope of tumor volume curve (linear regression) ([1]; days 0-55, during T-DM1 treatment): positive slope
